Values quoted from earlier work as cited in patent US8273721B2, “Combination treatment for bladder cancer” (Endo Pharmaceuticals Solutions Inc., priority 2008, dated 2012).

Compound | solubility in water (water) | solubility in organic solvents (in words) (methylene chloride, ethanol, methanol and acetone) | solubility in water (in words) (water)
O=C(OC1CC2CCC(C1)[N+]21CCCC1)C(O)(c1ccccc1)c1ccccc1.[Cl-] (stereo not drawn) [trospium chloride, spiro[8-azoniabicyclo[3,2,1]octane-8,1′pyrrolidinium]-3-[(hydroxydiphenyl-acetyl)-oxy]chloride(1α, 3β, 5α)(9Cl)] | approximately 1 g/2 mL | – | –
(2S-cis)-2-[1,2,3,4,6,11-hexahydro-2,5,12-trihydroxy-7-methoxy-6,11-dioxo-4-[[2,3,6-trideoxy-3-[(trifluoroacetyl)amino]-α-L-lyxo-hexopyranosyl]oxyl]-2-naphthacenyl]-2-oxoethyl pentanoate [Valrubicin] | – | soluble | relatively insoluble
